The values below are quoted from earlier work in PubChem BioAssay AID1259409 (Chemical Carcinogenesis Research Information System (CCRIS), 2018).

“And” between values parts separate entries of the source, which are not always exact repeats. Equal entries are not always repeated.

This series relates to rodent chemically induced tumor inhibition, incidence and multiplicity. The series is described as follows: CCRIS tumor inhibitor studies.

As to `C[C@@]12CCc3occc3[C@H]1CC[C@@]13C[C@@H](CC[C@H]12)[C@@](O)(CO)C3`, the “tumour outcome (control, treated, inhibition, significance)” value by setting is: (Carcinogen: 7,12-DIMETHYLBENZ[A]ANTHRACENE, 57-97-6, Dose [Inhibitor]: 0, 0.2 G/KG OF DIET OF 50:50 MIXTURE OF KAHWEOL AND CAFESTOL FOR 14 WK BEGINNING 1 WK PRIOR TO CARCINOGEN TREATMENT (STU, Route [Inhibitor]: ORAL, Species: HAMSTER, Strain/Sex: SYRIAN/FEMALE, Target Tissue: Type of Lesion: BUCCAL POUCH: TUMOR, Dose [Carcinogen]: 0.5% SOLUTION IN MINERAL OIL PAINTED ON LEFT BUCCAL POUCH 3/WK FOR 13 WK, Promoter: NONE USED) 14/14 (100%), 14/14 (100%), 0%, not significant; (Carcinogen: 7,12-DIMETHYLBENZ[A]ANTHRACENE, 57-97-6, Dose [Inhibitor]: 0, 2 G/KG OF DIET OF 50:50 MIXTURE OF KAHWEOL AND CAFESTOL FOR 14 WK BEGINNING 1 WK PRIOR TO CARCINOGEN TREATMENT (STUDY, Route [Inhibitor]: ORAL, Species: HAMSTER, Strain/Sex: SYRIAN/FEMALE, Target Tissue: Type of Lesion: BUCCAL POUCH: TUMOR, Dose [Carcinogen]: 0.5% SOLUTION IN MINERAL OIL PAINTED ON LEFT BUCCAL POUCH 3/WK FOR 13 WK, Promoter: NONE USED) 14/14 (100%), 14/15 (93%), 7%, not significant.

Take `CCC1OC(C)=C(O)C1=O` (configuration not stated): the “tumour outcome (control, treated, inhibition, significance)” value is listed as 100%, 76%, 24%, not calculated (Carcinogen: BENZO[A]PYRENE, 50-32-8, Dose [Inhibitor]: 0, 25 PPM IN DIET BEGINNING POST CARCINOGEN TREATMENT AND CONTINUING FOR DURATION OF STUDY (STUDY DURATION: 148 D), Route [Inhibitor]: ORAL, Species: MOUSE, Strain/Sex: ICR/FEMALE, Target Tissue: Type of Lesion: FORESTOMACH: TUMOR, Dose [Carcinogen]: 1.5 MG IN 0.2 ML CORN OIL 1/WK FOR 4 WK, Promoter: NONE USED); 100%, 54%, 46%, not calculated (Carcinogen: BENZO[A]PYRENE, 50-32-8, Dose [Inhibitor]: 0, 50 PPM IN DIET BEGINNING POST CARCINOGEN TREATMENT AND CONTINUING FOR DURATION OF STUDY (STUDY DURATION: 148 D), Route [Inhibitor]: ORAL, Species: MOUSE, Strain/Sex: ICR/FEMALE, Target Tissue: Type of Lesion: FORESTOMACH: TUMOR, Dose [Carcinogen]: 1.5 MG IN 0.2 ML CORN OIL 1/WK FOR 4 WK, Promoter: NONE USED); 100%, 75%, 25%, not calculated (Carcinogen: BENZO[A]PYRENE, 50-32-8, Dose [Inhibitor]: 0, 75 PPM IN DIET BEGINNING POST CARCINOGEN TREATMENT AND CONTINUING FOR DURATION OF STUDY (STUDY DURATION: 148 D), Route [Inhibitor]: ORAL, Species: MOUSE, Strain/Sex: ICR/FEMALE, Target Tissue: Type of Lesion: FORESTOMACH: TUMOR, Dose [Carcinogen]: 1.5 MG IN 0.2 ML CORN OIL 1/WK FOR 4 WK, Promoter: NONE USED).

`O=c1ccc2cc(O)c(O)cc2o1`: the “tumour outcome (control, treated, inhibition, significance)” value is recorded as 13/15 (87%), 8/15 (53%), 39%, p<0.05 (Carcinogen: 7,12-DIMETHYLBENZ[A]ANTHRACENE, 57-97-6, Dose [Inhibitor]: 0, 0.03% IN HIGH-FAT (20% SOYBEAN OIL) DIET FOR 19 WK BEGINNING 1 WK POST CARCINOGEN DOSE (STUDY DURATION: 20 WK), Route [Inhibitor]: ORAL, Species: RAT, Strain/Sex: SPRAGUE-DAWLEY/FEMALE, Target Tissue: Type of Lesion: MAMMARY GLAND: TUMOR, Dose [Carcinogen]: 5 MG ONCE, Promoter: NONE USED); 17/20 (85%), 10/19 (53%), 38%, p<0.05 (Carcinogen: 7,12-DIMETHYLBENZ[A]ANTHRACENE, 57-97-6, Dose [Inhibitor]: 0, 0.03% IN HIGH-FAT (20% SOYBEAN OIL) DIET FOR 20 WK BEGINNING 1 WK POST CARCINOGEN DOSE (STUDY DURATION: 21 WK), Route [Inhibitor]: ORAL, Species: RAT, Strain/Sex: SPRAGUE-DAWLEY/FEMALE, Target Tissue: Type of Lesion: MAMMARY GLAND: ADENOCARCINOMA, Dose [Carcinogen]: 5 MG ONCE, Promoter: NONE USED); 8/15 (53%), 3/15 (20%), 62%, not significant (Carcinogen: 7,12-DIMETHYLBENZ[A]ANTHRACENE, 57-97-6, Dose [Inhibitor]: 0, 0.03% IN LOW-FAT (0.5% SOYBEAN OIL) DIET FOR 19 WK BEGINNING 1 WK POST CARCINOGEN DOSE (STUDY DURATION: 20 WK), Route [Inhibitor]: ORAL, Species: RAT, Strain/Sex: SPRAGUE-DAWLEY/FEMALE, Target Tissue: Type of Lesion: MAMMARY GLAND: TUMOR, Dose [Carcinogen]: 5 MG ONCE, Promoter: NONE USED); 10/18 (56%), 4/22 (18%), 68%, p<0.05 (Carcinogen: 7,12-DIMETHYLBENZ[A]ANTHRACENE, 57-97-6, Dose [Inhibitor]: 0, 0.03% IN LOW-FAT (0.5% SOYBEAN OIL) DIET FOR 20 WK BEGINNING 1 WK POST CARCINOGEN DOSE (STUDY DURATION: 21 WK), Route [Inhibitor]: ORAL, Species: RAT, Strain/Sex: SPRAGUE-DAWLEY/FEMALE, Target Tissue: Type of Lesion: MAMMARY GLAND: ADENOCARCINOMA, Dose [Carcinogen]: 5 MG ONCE, Promoter: NONE USED); 24/30 (80%), 17/31 (55%), 31%, p<0.05 (Carcinogen: N-METHYL-N-NITROSOUREA, 684-93-5, Dose [Inhibitor]: 0, 0.03% IN DIET FOR 24 WK BEGINNING 1 WK POST CARCINOGEN DOSE (STUDY DURATION: 25 WK), Route [Inhibitor]: ORAL, Species: RAT, Strain/Sex: SPRAGUE-DAWLEY/FEMALE, Target Tissue: Type of Lesion: MAMMARY GLAND: TUMOR, Dose [Carcinogen]: 50 MG/KG ONCE, Promoter: NONE USED).

`COc1ccc2c(c1)CCC(c1ccccc1)=C2c1ccc(OCCN2CCCC2)cc1`: the “tumour outcome (control, treated, inhibition, significance)” value is, setting by setting: (Carcinogen: 7,12-DIMETHYLBENZ[A]ANTHRACENE, 57-97-6, Dose [Inhibitor]: 1 MG/KG 3/WK BEGINNING 2 D AFTER DMBA TREATMENT (STUDY DURATION: 5 MO), Route [Inhibitor]: SUBCUTANEOUS, Species: RAT, Strain/Sex: SPRAGUE-DAWLEY/FEMALE, Target Tissue: Type of Lesion: MAMMARY GLAND: ADENOCARCINOMA, FIBROADENOMA, Dose [Carcinogen]: 5 MG IN 0.5 ML CORN OIL AT 50 D OF AGE, Promoter: NONE USED) 56%, 10%, 82%, not calculated and 34%, 1%, 97%, not calculated; (Carcinogen: 7,12-DIMETHYLBENZ[A]ANTHRACENE, 57-97-6, Dose [Inhibitor]: 1 MG/KG 3/WK BEGINNING 2 D AFTER DMBA TREATMENT (STUDY DURATION: 5 MO), Route [Inhibitor]: SUBCUTANEOUS, Species: RAT, Strain/Sex: SPRAGUE-DAWLEY/FEMALE, Target Tissue: Type of Lesion: MAMMARY GLAND: ADENOCARCINOMA, FIBROADENOMA, Dose [Carcinogen]: 10 MG IN 0.5 ML CORN OIL AT 50 D OF AGE, Promoter: NONE USED) 58%, 27%, 53%, not calculated and 38%, 10%, 74%, not calculated; (Carcinogen: 7,12-DIMETHYLBENZ[A]ANTHRACENE, 57-97-6, Dose [Inhibitor]: 1 MG/KG 3/WK BEGINNING 15 D AFTER DMBA TREATMENT (STUDY DURATION: 5 MO), Route [Inhibitor]: SUBCUTANEOUS, Species: RAT, Strain/Sex: SPRAGUE-DAWLEY/FEMALE, Target Tissue: Type of Lesion: MAMMARY GLAND: ADENOCARCINOMA, FIBROADENOMA, Dose [Carcinogen]: 5 MG IN 0.5 ML CORN OIL AT 50 D OF AGE, Promoter: NONE USED) 56%, 22%, 61%, not calculated and 34%, 5%, 85%, not calculated.

With `O=c1cc[nH]c(=O)[nH]1`, the “tumour outcome (control, treated, inhibition, significance)” value is 18/18 (100%), 18/21 (86%), 14%, not calculated (Carcinogen: 7,12-DIMETHYLBENZ[A]ANTHRACENE, 57-97-6, Dose [Inhibitor]: 1.5% IN 20% PROTEIN DIET (STUDY DURATION: 100 D), Route [Inhibitor]: ORAL, Species: RAT, Strain/Sex: STRAIN-CB/FEMALE, Target Tissue: Type of Lesion: MAMMARY GLAND: TUMOR, Dose [Carcinogen]: 15 MG IN 1 ML ARACHIS OIL 1/2 WK FOR 3 DOSES STARTING AT 30 D OF AGE, Promoter: NONE USED); 3/11 (27%), 0/9 (0%), 100%, not significant (Carcinogen: N-METHYL-N-NITROSOUREA, 684-93-5, Dose [Inhibitor]: 0, 3% IN DIET FOR 20 WK BEGINNING POST LAST CARCINOGEN DOSE (STUDY DURATION: 24 WK), Route [Inhibitor]: ORAL, Species: RAT, Strain/Sex: F344/MALE, Target Tissue: Type of Lesion: LUNG: ADENOMA, Dose [Carcinogen]: 20 MG/KG 2/WK FOR 4 WK, Promoter: NONE USED); 6/11 (55%), 1/11 (10%), 82%, p>0.05 (Carcinogen: N-METHYL-N-NITROSOUREA, 684-93-5, Dose [Inhibitor]: 0, 3% IN DIET FOR 20 WK BEGINNING POST LAST CARCINOGEN DOSE (STUDY DURATION: 24 WK), Route [Inhibitor]: ORAL, Species: RAT, Strain/Sex: F344/MALE, Target Tissue: Type of Lesion: THYROID: ADENOMA, CARCINOMA, Dose [Carcinogen]: 20 MG/KG 2/WK FOR 4 WK, Promoter: NONE USED).

As for `COc1cc2c(cc1OC)[C@]1(O)C(=O)c3ccc4c(c3O[C@@H]1CO2)C=CC(C)(C)O4`, the “tumour outcome (control, treated, inhibition, significance)” value (Carcinogen: 7,12-DIMETHYLBENZ[A]ANTHRACENE, 57-97-6, Dose [Inhibitor]: 0, 85 NMOL 2/WK BEGINNING 1 WK POST CARCINOGEN DOSE (STUDY DURATION: 20 WK), Route [Inhibitor]: DERMAL, Species: MOUSE, Strain/Sex: ICR/FEMALE, Target Tissue: Type of Lesion: SKIN: PAPILLOMA, Dose [Carcinogen]: 390 NMOL, Promoter: 12-O-TETRADECANOYLPHORBOL-13-ACETATE, 16561-29-8) was 100%, 40%, 60%, not calculated.
